Assay [1] addresses T1, IKZF3 in L363 cells (Homo sapiens, UniProt Q96SW2+Q9UKT9).
T1 construct: endogenous in cells; host or cells: L363
In words: Degradation of IKZF3 in L363 cells (Western blot). The class given is cell-based. The conditions noted are these: 1000 nM, 16 hours. On the procedure: The 24-well cell culture plate was inoculated with 0.95 mL L363 cells (Nanjing Co-bioer) per well with a cell density of 6×10^5 cells/well. The cell plate was placed in a 5% carbon dioxide incubator and cultured at 37° C. for 8 hours, then 50 μL of compound solution was added. The final concentration of the compound was 1000 nM. After continuing to culture for 16 hours, the cells were collected into a 1.5 mL centrifuge tube and centrifuged at 3000 rpm and 4° C. for 5 minutes. Cell precipitation was cleaned twice with 1×DPBS, resuspended cells were lysed with 100 μL lysate (cell lysate was Western and IP cell lysate (Beyotime), supplemented with 1 mM mixture of phenylmethylsulfonyl fluoride and protease inhibitor (Beyotime)), left on ice for 30 minutes, then centrifuged at 14000 g at 4° C. for 10 minutes, and the supernatant was taken to detect IKZF1 and IKZF3 protein level by Western blot.
The total protein concentration in the supernatant of cell lysis was determined by BCA protein quantitative kit (Tiangen). According to the concentration of total protein detected by BCA, the supernatant was adjusted to 0.2 μg/μL with PBS and 5× SDS-PAGE protein loading buffer (Beyotime), bathed in water at 100° C. for 10 minutes, then placed in ice bath for 5 minutes, centrifuged at 14000 g and 4° C. for 5 minutes, and then collected as WB loading sample. Prefabricated glue (KeyGEN) was used for protein electrophoresis with a loading amount of 10 μL (total protein 2 μg). After Tris-MOPS-SDS electrophoresis solution (Adamas), 120V constant pressure electrophoresis was performed. After electrophoresis, the protein on the adhesive strip was transferred to PVDF membrane with a constant current of […] for 50 minutes. After the membrane was transferred, the membrane was incubated in 5% bovine serum albumin solution for 2 hours at room temperature. After blocking, PVDF membranes were incubated with IKZF1 primary antibody (CST) and IKZF3 primary antibody (Abcam) overnight at 4°, the membranes were washed with TBST buffer (2.4 g Tris, 8.8 g NaCl, 1.5 mL Tween 20, pH adjusted to 7.4, constant volume to IL) for 30 minutes, incubated with secondary antibody (Abcam) for 2 hours at room temperature, finally incubated with Clarity Western ECL Substrate(BIO-RAD) for 5 minutes for luminescence development, chemiluminescence imaging system (Clinx, chemiScope 6200 Touch) for development and protein mapping photography. The protein map was analyzed by Clinx chemiluminescence analysis software for grayscale values. Using the formula: grayscale correction value=(target protein grayscale value/corresponding internal reference grayscale value)×10^3, the grayscale correction value of each sample was calculated. The degradation rate was calculated by comparing with the grayscale correction value of the control group.
For orientation: In western blotting, separated proteins are transferred to a membrane and probed.

Assay [2] addresses T2, IRAK4 kinase (Homo sapiens, UniProt Q9NWZ3).
T2 sequence (Q9NWZ3 1-460): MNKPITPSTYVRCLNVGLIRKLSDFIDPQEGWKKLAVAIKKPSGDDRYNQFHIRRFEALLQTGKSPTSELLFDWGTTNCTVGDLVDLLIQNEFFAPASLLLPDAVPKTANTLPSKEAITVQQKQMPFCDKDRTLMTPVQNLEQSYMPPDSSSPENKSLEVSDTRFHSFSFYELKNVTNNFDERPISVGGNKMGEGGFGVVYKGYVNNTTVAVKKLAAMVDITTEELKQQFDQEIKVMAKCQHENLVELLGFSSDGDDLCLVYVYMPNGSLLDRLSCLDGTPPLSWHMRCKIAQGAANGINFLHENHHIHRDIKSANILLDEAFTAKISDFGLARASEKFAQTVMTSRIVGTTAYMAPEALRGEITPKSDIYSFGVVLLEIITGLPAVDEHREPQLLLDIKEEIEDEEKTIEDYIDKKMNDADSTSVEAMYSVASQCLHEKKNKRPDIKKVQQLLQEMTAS
In words: IRAK4 kinase activity test (KinEASE-STK S1 HTRF kit). The assay is classed as biochemical. The conditions noted are these: 2.5 nM kinase, 1 μM biotinylated polypeptide substrate, 7 μM ATP, 37° C. 120 min. The gist of the method:
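Compound in DMSO, serially diluted to 10000–0.038 nM final, incubated with 2.5 nM kinase, 1 μM biotinylated peptide substrate and 7 μM ATP at 37° C for 120 min. Eu-anti-phospho-Ser/Thr antibody plus streptavidin-XL665 stopped the reaction (1 h RT). HTRF 665/620 nm ratio gave % inhibition versus control; IC50 from nonlinear log-concentration fit.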
(TR-FRET usually uses a lanthanide donor and a delayed reading to cut background.)

pIC50: −log10 of the molar value.

The values below come from patent publication US20230234936A1, “COMPOUND FOR TARGETING AND DEGRADING PROTEIN, AND PREPARATION METHOD THEREFOR AND USE THEREOF” (SHANGHAI LEADINGTAC PHARMACEUTICAL CO., LTD., priority 2020, published 2023).

T1 sequence (Q9UKT9 whole entry): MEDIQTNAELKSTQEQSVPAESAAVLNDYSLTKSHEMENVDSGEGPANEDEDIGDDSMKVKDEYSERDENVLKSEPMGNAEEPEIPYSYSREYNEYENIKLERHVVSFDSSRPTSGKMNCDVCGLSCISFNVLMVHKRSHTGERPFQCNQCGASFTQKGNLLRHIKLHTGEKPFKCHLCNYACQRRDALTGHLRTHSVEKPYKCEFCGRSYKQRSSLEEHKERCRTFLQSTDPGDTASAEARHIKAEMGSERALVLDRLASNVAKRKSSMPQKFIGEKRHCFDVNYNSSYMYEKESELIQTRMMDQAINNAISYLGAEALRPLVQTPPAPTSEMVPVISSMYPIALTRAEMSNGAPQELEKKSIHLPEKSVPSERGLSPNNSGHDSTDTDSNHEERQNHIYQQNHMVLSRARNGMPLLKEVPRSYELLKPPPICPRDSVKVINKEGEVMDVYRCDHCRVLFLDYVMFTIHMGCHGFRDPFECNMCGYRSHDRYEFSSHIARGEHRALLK
T1 sequence (Q96SW2 whole entry): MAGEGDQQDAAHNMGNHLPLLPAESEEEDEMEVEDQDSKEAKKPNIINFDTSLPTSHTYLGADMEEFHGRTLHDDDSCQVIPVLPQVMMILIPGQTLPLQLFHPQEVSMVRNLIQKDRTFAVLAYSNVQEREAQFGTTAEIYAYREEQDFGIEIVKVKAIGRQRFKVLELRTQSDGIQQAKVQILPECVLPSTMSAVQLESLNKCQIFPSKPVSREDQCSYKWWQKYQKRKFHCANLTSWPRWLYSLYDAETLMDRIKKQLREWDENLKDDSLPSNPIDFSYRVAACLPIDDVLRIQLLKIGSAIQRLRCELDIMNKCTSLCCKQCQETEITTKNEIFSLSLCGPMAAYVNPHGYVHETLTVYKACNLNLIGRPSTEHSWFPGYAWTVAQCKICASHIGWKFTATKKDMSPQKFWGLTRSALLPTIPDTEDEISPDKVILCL
T1 sequence (Q16531 whole entry partner): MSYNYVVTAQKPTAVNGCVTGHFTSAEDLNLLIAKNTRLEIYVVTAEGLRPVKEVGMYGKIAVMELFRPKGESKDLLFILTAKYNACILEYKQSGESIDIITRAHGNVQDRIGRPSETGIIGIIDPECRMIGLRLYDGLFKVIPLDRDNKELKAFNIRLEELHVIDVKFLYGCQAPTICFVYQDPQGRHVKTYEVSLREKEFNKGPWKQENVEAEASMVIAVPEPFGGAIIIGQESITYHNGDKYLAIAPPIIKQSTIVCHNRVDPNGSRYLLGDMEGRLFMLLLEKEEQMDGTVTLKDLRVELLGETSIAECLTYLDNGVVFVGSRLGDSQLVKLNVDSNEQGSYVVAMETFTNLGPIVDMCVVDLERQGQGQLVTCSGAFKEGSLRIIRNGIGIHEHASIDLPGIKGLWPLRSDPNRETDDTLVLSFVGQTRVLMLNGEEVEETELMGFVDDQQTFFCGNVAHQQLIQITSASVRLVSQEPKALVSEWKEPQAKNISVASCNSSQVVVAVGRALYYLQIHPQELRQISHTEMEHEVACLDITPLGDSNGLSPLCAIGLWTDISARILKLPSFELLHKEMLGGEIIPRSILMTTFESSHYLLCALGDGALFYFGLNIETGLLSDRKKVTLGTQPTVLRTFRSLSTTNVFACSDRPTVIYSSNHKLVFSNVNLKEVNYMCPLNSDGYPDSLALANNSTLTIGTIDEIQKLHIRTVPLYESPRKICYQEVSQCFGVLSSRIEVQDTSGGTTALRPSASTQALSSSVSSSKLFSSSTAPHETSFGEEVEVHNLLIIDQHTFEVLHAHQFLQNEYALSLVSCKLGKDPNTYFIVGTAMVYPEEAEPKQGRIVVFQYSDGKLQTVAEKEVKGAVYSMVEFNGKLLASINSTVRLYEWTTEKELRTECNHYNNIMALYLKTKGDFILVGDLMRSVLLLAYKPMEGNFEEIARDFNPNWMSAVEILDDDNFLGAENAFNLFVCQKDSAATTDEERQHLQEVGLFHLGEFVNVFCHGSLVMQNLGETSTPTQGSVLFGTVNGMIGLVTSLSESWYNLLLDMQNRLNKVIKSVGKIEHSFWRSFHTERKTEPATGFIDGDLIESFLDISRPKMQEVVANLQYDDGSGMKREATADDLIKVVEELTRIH

`CC(C)(O)c1cc2nn(C3CCN(CC4CCC5(CC4)CCN(C(=O)c4ccc(Cl)c(N6CCC(=O)NC6=O)c4)CC5)CC3)cc2cc1NC(=O)c1cccc(C(F)(F)F)n1` [Example 31, N-(2-(1-((3-(4-chloro-3-(2,4-dioxotetrahydro-pyrimidin-1 (2H)-yl)benzoyl)-3-azaspiro [5.5]undec-9-yl)methyl)piperdin-4-yl)-6-(2-hydroxyprop-2-yl)-2H-indazol-5-yl)-6-(trifluoro-methyl) pyridinecarbox-amide] displayed an IKZF3 degradation rate in assay [1] of 17.8 ± 3.6%. In assay [2], the pIC50 was 7.85.
Molecule `COc1cc2nn(C3CCN(CC4CCN(CCOc5ccc6c(c5)C(=O)N(C5CCC(=O)NC5=O)C6=O)CC4)CC3)cc2cc1NC(=O)c1cccc(C(F)(F)F)n1` (stereo not drawn) [Control group 2, N-(2-(1-((1-(2-((2-(2,6-dioxopiperidin-3-yl)-1,3-dioxoisoindol-5-yl)oxy)ethyl)piperidin-4-yl)methyl)piperidin-4-yl)-6-methoxy-2H-indazol-5-yl)-6-(trifluoromethyl) pyridinecarboxamide, reference compound] had an IKZF3 degradation rate in assay [1] of 71.2 ± 5.7%. In assay [2], this molecule had a pIC50 of 7.82.
In assay [1], `CN(CC1CCN(c2cccc3c2C(=O)N(C2CCC(=O)NC2=O)C3=O)CC1)C[C@H]1CC[C@H](n2cc3cc(NC(=O)c4cccc(C(F)(F)F)n4)c(C(C)(C)O)cc3n2)CC1` (stereo partly drawn) [Control group 3, N-(2-((1r,4r)-4-((((1-(2-(2,6-dioxopiperidin-3-yl)-1,3-dioxoisoindolin-4-yl)piperidin-4-yl)methyl) (methyl)amino)methyl)cyclohexyl)-6-(2-hydroxyprop-2-yl)-2H-indazol-5-yl)-6-(trifluoromethyl) pyridinecarboxamide, reference compound] came in with an IKZF3 degradation rate of 92.8 ± 5.0%. The molecule also gave a pIC50 in assay [2] of 7.79.

One may read the pIC50 as the negative decadic logarithm of the IC50, by convention in mol/L. Read a low pIC50 as a large IC50.
